The values that follow come from patent US5523408A, “2-carbocyclic and 2-heterocyclic quinoline-4-carboxylic acids and salts thereof useful as immunosuppressive agents” (The Dupont Merck Pharmaceutical Company, priority 1994, dated 1996).

The test system of assay [1] is contact sensitivity response to 2,4-dinitrofluorobenzene (DNFB). Kind of assay: Assay of Contact Sensitivity Response to DNFB in Mice. The class given is in vivo, Balb/c female mice. Particulars: oral, 0.25% Methocel; ear swelling 24 hours after DNFB challenge. The source says:
Contact sensitivity to 2,4-dinitrofluorobenzene (DNFB) has been extensively studied and characterized in the mouse to determine the regulatory mechanisms involved in cell mediated immune responses (Claman et al., Immunol. Rev. 50:105, 1980; Young and Young, "Cutaneous Models of Inflammation for the Evaluation of Topical and Systemic Pharmacological Agents" in Pharmacological Methods in the Control of Inflammation (Chang and Lewis, Eds.), Alan R. Liss, Inc., New York, pp. 215-231, 1989). This is an antigen-specific T-cell mediated inflammatory response that represents delayed-type hypersensitivity reactions seen in both humans and other mammals. This contact sensitivity animal model is used routinely in many laboratories for pharmacological screening of antiinflammatory agents.
The contact sensitivity model used for this study is an extensively used model system for delayed-type hypersensitivity reactions involving cell-mediated immune responses (T-cell mediated responses), which have been linked to the disease pathology associated with organ transplantation rejection, graft versus host disease, multiple sclerosis, myasthenia gravis, systemic lupus erythematosus, rheumatoid arthritis, and other chronic inflammatory diseases and autoimmune diseases for which the T-cell is pivotal to mounting an immune or autoimmune response.
Balb/c female mice (approximately 20 g, Charles River) were sensitized on the shaved abdomen with 25 uL of 0.5% 2,4-dinitrofluorobenzene (DNFB) (Eastman Kodak Co.) in a vehicle of 4:1 acetone: olive oil on days 0 and 1. Mice were ear challenged with 20 uL of 0.2% DNFB in a vehicle of 4:1 acetone: olive oil on day 5. An identical segment of the ear was measured immediately before challenge and 24 hours later with an engineer's micrometer. Ear swelling was expressed as the difference in ear thickness before and after challenge in units of 10-4 inches±SEM. Percent suppression was calculated as: [formula] Compounds (prepared in 0.25% Methocel®) were administered orally. Control animals received only vehicle (0.25% Methocel®). Negative controls were not sensitized on days 0 and 1 but were ear challenged on day 5. Ten mice are typically used per group.
Contact sensitivity results for representative compounds of the present invention are shown in Table B. In this table, + designates greater than 30% suppression of control ear swelling.

Assay [2] concerns human mixed lymphocyte reaction. Kind of assay: Human Mixed Lymphocyte Reaction Test (MLR). The class given is cell-based. Particulars: 144 h. The source says:
The human mixed lymphocyte reaction is an in vitro immune response. Inhibition of the human mixed lymphocyte reaction immune response is a standard assay used in the field of immunology, which is considered to be indicative of in vivo immunosuppressive activity. […] The human mixed lymphocyte is also used as a model system for immune reactions involving T-cell-mediated immune responses. Such T-cell-mediated immune responses have been linked to the disease pathology associated with autoimmune diseases, chronic inflammatory diseases, graft versus host disease and organ transplantation rejection.
Blood was obtained by venipuncture from two non-related human donors. Peripheral blood mononuclear cells (PBMC) were isolated from these samples by using the Leuco Prep procedure (Becton-Dickinson). […] Cells from donor A (2×10^5) were incubated with cells from donor B (2×10^5) with or without compound in 96 well round bottom microtiter plates at 37° C., 5% CO2 for 6 days. Eighteen hours prior to harvesting cells from the plates, all wells were pulsed with 1 uCi of tritiated-thymidine. Cells from the plates were washed on day 6 and tritiated-thymidine incorporation was determined using a scintillation counter.

[3] abbreviates: human MLR, tritiated-thymidine incorporation, 6 days, read-out: IC50.

Counter-ions that a name gives are not always drawn. Like-named read-outs stand apart in the source and are kept apart here.

`Cc1c(N2CCc3c(-c4ccccc4)cccc32)nc2ccc(F)cc2c1C(=O)[O-].[Na+]` [Ex. 2, 6-fluoro-3-methyl-2-(4-phenyl-1-indolinyl)quinoline-4-carboxylic acid, sodium salt]: the “Contact Sensitivity Activity (suppression of control ear swelling)” value (“Contact Sensitivity Activity” below) in assay [1] is on record as “+ (greater than 30% suppression of control ear swelling)”.

Broadly, the IC50 is the concentration that inhibits the measured activity by half. Consider `O=C(O)c1cc(N2CCc3c(-c4ccccc4)cccc32)nc2ccc(F)cc12` [Ex. 5, 6-fluoro-2-(4-phenyl-1-indolinyl)-quinoline-4-carboxylic acid, sodium salt], for which the concentration for half-maximal inhibition (IC50) in assay [2] (Homo sapiens) is less than 50 nM.

Regarding `Cc1c(-n2cnc3c(-c4ccccc4)cc(F)cc32)nc2ccc(F)cc2c1C(=O)O` [Ex. 68, 6-fluoro-3-methyl-2-(6-fluoro-4-phenyl-1-benzimidazolyl)quinoline-4-carboxylic acid], the IC50 in assay [2] (setting [3]) fell in the range of 50 to 10000 nM.

For `O=C([O-])c1cc(N2CCc3c(-c4cccc(C(F)(F)F)c4)cccc32)nc2ccc(F)cc12.[Na+]` [Ex. 6, 6-fluoro-2-[4-(3-trifluoromethylphenyl)-1-indolinyl]-quinoline-4-carboxylicacid, sodium salt], the “Contact Sensitivity Activity” value in assay [1] was “+ (greater than 30% suppression of control ear swelling)”. The compound also came in with an IC50 in assay [2] (Homo sapiens) of less than 50 nM.

`Cc1c(-c2cn(C)c3c(-c4ccccc4)cccc23)nc2ccc(C(F)(F)F)cc2c1C(=O)O` [Ex. 73, 3-methyl-2-(7-phenyl-1-methyl-3-indolyl)-6-trifluoromethylquinoline-4-carboxylic acid, sodium salt] yielded an IC50 in assay [2] (Homo sapiens) of less than 50 nM.

On to `COc1cccc(-c2cccc3c2CCN3c2nc3ccc(F)cc3c(C(=O)O)c2C)c1` [Ex. 13, 6-fluoro-[4-(3-methoxyphenyl)-1-indolinyl]-3-methylquinoline-4-carboxylic acid, sodium salt], for which the IC50 in assay [2] (setting [3]) is less than 50 nM.

With `Cc1c(-n2ccc3c(-c4ccccc4)cccc32)nc2ccc(F)cc2c1C(=O)O` [Ex. 46], in assay [1], the “Contact Sensitivity Activity” value is “+ (greater than 30% suppression of control ear swelling)”. The IC50 in assay [2] (setting [3]) lay in the range of 50 to 10000 nM.

For the compound `Cc1c(-c2cn(C)c3c(-c4ccccc4)cccc23)nc2ccc(F)cc2c1C(=O)[O-].[Na+]` [Ex. 75, 6-fluoro-3-methyl-2-(7-phenyl-1-methyl-3-indolyl)-quinoline-4-carboxylic acid, sodium salt], in assay [1], the “Contact Sensitivity Activity” value is listed as “+ (greater than 30% suppression of control ear swelling)”. For the same compound, the IC50 in assay [2] (Homo sapiens) was 50 to 10000 nM.

The compound `Cc1ccccc1-c1cccc2c1CCN2c1nc2ccc(F)cc2c(C(=O)O)c1C` [Ex. 11, 6-fluoro-3-methyl-2-[4-(2-methylphenyl)-1-indolinyl]-quinoline-4-carboxylicacid, sodium salt] displayed an IC50 in assay [2] (Homo sapiens) of less than 50 nM.

In the case of `Cc1c(-n2ccc3c(-c4ccccc4)cccc32)nc2ccc(F)cc2c1C(=O)[O-].[Na+]` [Ex. 47, 6-fluoro-3-methyl-2-(4-phenyl-1-indolyl)-quinoline-4-carboxylic acid, sodium salt], the “Contact Sensitivity Activity” value in assay [1] was “+ (greater than 30% suppression of control ear swelling)”.

For `CN(Cc1cnc2nc(N)nc(N)c2n1)c1ccc(C(=O)N[C@@H](CCC(=O)O)C(=O)O)cc1` [methotrexate, reference compound], the “Contact Sensitivity Activity” value in assay [1] was “+ (greater than 30% suppression of control ear swelling)”. In assay [2] (Homo sapiens), this compound had an IC50 of less than 50 nM.

In the case of `Cc1ccccc1-c1cccc2c1CCN2c1cc(C(=O)O)c2cc(F)ccc2n1` [Ex. 8, 6-fluoro-2-[4-(2-methylphenyl)-1-indolinyl]-quinoline-4-carboxylic acid, sodium salt], the IC50 in assay [2] (Homo sapiens) was less than 50 nM.

Regarding `O=C(O)c1cc(N2CCc3c(-c4ccccc4F)cccc32)nc2ccc(F)cc12` [Ex. 7], the “Contact Sensitivity Activity” value in assay [1] was “+ (greater than 30% suppression of control ear swelling)”. Moreover, the IC50 in assay [2] (setting [3]) was less than 50 nM.

For `COc1ccccc1-c1cccc2c1CCN2c1nc2ccc(F)cc2c(C(=O)O)c1C` [Ex. 9, 6-fluoro-[4-(2-methoxyphenyl)-1-indolinyl]-3-methylquinoline-4-carboxylic acid, sodium salt], the IC50 in assay [2] (setting [3]) was less than 50 nM.

Regarding `Cc1c(N2CCc3c(-c4ccccc4F)cccc32)nc2ccc(F)cc2c1C(=O)[O-].[Na+]` [Ex. 10, 6-fluoro-2-[4-(2-fluorophenyl)-1-indolinyl]-3-methylquinoline-4-carboxylic acid, sodium salt], in assay [1], the “Contact Sensitivity Activity” value is “+ (greater than 30% suppression of control ear swelling)”. Besides, the IC50 in assay [2] (Homo sapiens) is less than 50 nM.

Take `Cc1c(-c2cccc3c(-c4ccccc4)cccc23)nc2ccc(F)cc2c1C(=O)O` [Ex. 128, 6-fluoro-3-methyl-2-(5-phenyl-1-naphthyl) quinoline-4-carboxylic acid, sodium salt]: in assay [2] (setting [3]), the IC50 is 50 to 10000 nM.

Take `Cc1c(N2CCc3c(-c4ccccc4)cccc32)nc2ccccc2c1C(=O)O` [Ex. 4]: the “Contact Sensitivity Activity” value in assay [1] was “+ (greater than 30% suppression of control ear swelling)”. In addition, the concentration for half-maximal inhibition (IC50) in assay [2] (setting [3]) was 50 to 10000 nM.

As for `Cc1c(N2CCc3c(-c4ccccc4)cccc32)nc2ccc(F)cc2c1C(=O)O` [Ex. 1, 6-fluoro-3-methyl-2-(4-phenyl-1-indolinyl)quinoline-4-carboxylic acid], the “Contact Sensitivity Activity” value in assay [1] is listed as “+ (greater than 30% suppression of control ear swelling)”. Also, the concentration for half-maximal inhibition (IC50) in assay [2] (setting [3]) is less than 50 nM.

Regarding `Cc1c(N2CCc3c(-c4cccc(C(F)(F)F)c4)cccc32)nc2ccc(F)cc2c1C(=O)[O-].[Na+]` [Ex. 12, 6-fluoro-3-methyl-2-[4-(3-trifluoromethylphenyl)-1-indolinyl]-quinoline-4-carboxylic acid, sodium salt], the “Contact Sensitivity Activity” value in assay [1] is “+ (greater than 30% suppression of control ear swelling)”. The IC50 in assay [2] (Homo sapiens) was less than 50 nM.
